From patent publication US12162888B2, “Carboxamides as ubiquitin-specific protease inhibitors” (Valo Early Discovery, Inc., priority 2018, dated 2024)

Each compound was assayed against T1, USP28 (His-tagged USP28-FL-mammalian) (Homo sapiens, UniProt Q96RU2) (assay: Ubiquitin-Rhodamine 110 Assay for USP28 Activity, Example A-1(a)). Settings: Ubiquitin-Rhodamine 110 assay, IC50 ranges, read-out: USP28 A-1(a) IC50.
T1 construct: Expression of USP28 (1-1077)-TEV-6*His (pTT5 vector) was carried out in Expi293f cells; made in house; host or cells: Expi293F cells (pTT5 vector)
T1 sequence (Q96RU2 1-1077): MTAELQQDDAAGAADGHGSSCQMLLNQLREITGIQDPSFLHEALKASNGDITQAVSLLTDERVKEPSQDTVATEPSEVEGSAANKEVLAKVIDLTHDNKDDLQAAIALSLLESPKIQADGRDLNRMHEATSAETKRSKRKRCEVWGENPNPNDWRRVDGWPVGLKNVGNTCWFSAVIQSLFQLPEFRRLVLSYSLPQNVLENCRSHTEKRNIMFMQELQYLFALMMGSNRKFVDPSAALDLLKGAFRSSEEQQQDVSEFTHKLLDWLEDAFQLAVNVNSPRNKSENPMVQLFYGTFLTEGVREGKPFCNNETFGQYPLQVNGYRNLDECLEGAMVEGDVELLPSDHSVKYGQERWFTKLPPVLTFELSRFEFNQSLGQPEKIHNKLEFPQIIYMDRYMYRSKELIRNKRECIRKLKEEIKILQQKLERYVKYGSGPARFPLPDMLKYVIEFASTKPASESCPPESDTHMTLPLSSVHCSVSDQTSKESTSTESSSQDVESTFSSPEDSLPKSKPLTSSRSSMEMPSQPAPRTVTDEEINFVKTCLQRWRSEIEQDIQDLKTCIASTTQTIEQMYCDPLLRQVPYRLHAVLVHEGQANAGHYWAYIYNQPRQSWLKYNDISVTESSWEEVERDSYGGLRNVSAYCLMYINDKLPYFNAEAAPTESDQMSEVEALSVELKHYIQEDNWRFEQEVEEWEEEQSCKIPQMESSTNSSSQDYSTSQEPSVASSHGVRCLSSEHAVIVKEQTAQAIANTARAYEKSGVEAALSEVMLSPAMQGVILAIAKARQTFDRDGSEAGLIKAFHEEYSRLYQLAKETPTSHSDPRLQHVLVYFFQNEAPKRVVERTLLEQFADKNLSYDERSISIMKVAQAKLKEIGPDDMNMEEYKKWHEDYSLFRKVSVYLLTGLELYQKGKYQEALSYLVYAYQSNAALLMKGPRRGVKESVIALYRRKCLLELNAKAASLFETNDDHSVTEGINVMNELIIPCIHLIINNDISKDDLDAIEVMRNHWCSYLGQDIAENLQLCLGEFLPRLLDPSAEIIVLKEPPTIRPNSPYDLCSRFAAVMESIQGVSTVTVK
Assay type: biochemical
Summary of the method: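 IC50s were fitted with a 4-parameter logistic to percent inhibition relative to no-enzyme and DMSO controls, using Rhodamine 110 fluorescence (485/535 nm) released from 25 nM Ub-Rh110. The enzyme was Expi293F-expressed USP28-FL-His at […], preincubated 30 min with compound (10-point, 25 μM top) in Tris pH 8.0 buffer containing BGG and Triton X-100. Substrate turnover ran 45 min at room temperature and was stopped with 10 mM citric acid.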

Work on `N#Cc1c(N2CC3CCC(C2)N3)cc(F)c2c1OC[C@H](NC(=O)c1cnc3c(c1)[C@@H]1CC1CN3)C2` (stereo partly drawn) [Example 228, (6aS,7aR)-N-[(3R)-8-cyano-7-(3,8-diazabicyclo[3.2.1]octan-3-yl}-5-fluoro-3,4-dihydro-2H-1-benzopyran-3-yl]-5H,6H,6aH,7H,7aH-cyclopropa[c]1,8-naphthyridine-2-carboxamide] yielded an IC50 of 200 to 2000 nM.

Same assay, conditions: Ubiquitin-Rhodamine 110 assay, read-out: USP28 A-1(a) IC50 range

First: Cc1ccc2c(N)c(C(=O)N[C@@H]3CCc4c(C#N)c(N5CC6CNCC(C5)O6)cc(F)c4C3)sc2n1 (single isomer, unassigned) [Example 14-16]
Second: Cc1ccc2c(N)c(C(=O)N[C@H]3CCc4c(C#N)c(N5CC6CNCC(C5)O6)cc(F)c4C3)sc2n1 (single isomer, unassigned) [Example 14-15]
The IC50 of the first is higher: 50 to 200 nM for the first, 1 to 50 nM for the second. The second is the more potent here.

Compared with `Cc1cnc2c(N)c(C(=O)N[C@H]3CCc4cc(N5CCNCC5)cc(F)c4C3)sc2n1` (single isomer, unassigned) [Example 11-38], `Cc1cnc2c(N)c(C(=O)N[C@@H]3CCc4cc(N5CCNCC5)cc(F)c4C3)sc2n1` (single isomer, unassigned) [Example 11-37] is higher in IC50: 50 to 200 nM for the first, 200 to 2000 nM for the second. The first is the more potent here.

First: CO[C@H]1CN(c2cc(F)c3c(c2C#N)CC[C@H](NC(=O)c2sc4nc(C)ccc4c2N)C3)C[C@@H]1N (single isomer, unassigned) [Example 14-23]
Second: Cc1ccc2c(N)c(C(=O)N[C@@H]3CCc4c(C#N)c(N5CCNCC5)cc(F)c4C3)sc2n1 (single isomer, unassigned) [Example 14-9]
The IC50 of the first is lower: 1 to 50 nM for the first, 200 to 2000 nM for the second.

`Cc1nc2sc(C(=O)N[C@H]3CCc4c(C#N)c(N5CCNCC5)cc(F)c4C3)c(N)c2s1` (single isomer, unassigned) [Example 14-14] and `Cc1ccc2c(N)c(C(=O)N[C@H]3CCc4c(C#N)c(N5CCNCC5)cc(F)c4C3)sc2n1` (single isomer, unassigned) [Example 14-10] fall in the same range of IC50: 1 to 50 nM for the first, 1 to 50 nM for the second.

Compared with `CN[C@H]1CCN(c2ccc3c(c2)CC[C@@H](NC(=O)c2sc4nc(C)cnc4c2N)C3)C1` (single isomer, unassigned) [Example 11-26], `CN[C@@H]1CCN(c2ccc3c(c2)CC[C@@H](NC(=O)c2sc4nc(C)cnc4c2N)C3)C1` (single isomer, unassigned) [Example 11-28] is lower in IC50: greater than 2000 nM for the first, 200 to 2000 nM for the second.

Compared with `Cc1cnc2c(N)c(C(=O)N[C@H]3CCc4c(ccc(N5CCNCC5)c4F)C3)sc2n1` (single isomer, unassigned) [Example 21-10], `Cc1cnc2c(N)c(C(=O)N[C@@H]3CCc4c(C#N)c(N5CCNCC5)cc(F)c4C3)sc2n1` (single isomer, unassigned) [Example 14-11] is lower in IC50: greater than 2000 nM for the first, 1 to 50 nM for the second.

`Cc1ccc2c(N)c(C(=O)N[C@H]3CCc4nc(N5C[C@H](N)[C@@]6(CCOC6)C5)ccc4C3)sc2n1` [Example 437, 3-amino-N-[(6S)-2-[(5R,9R)-9-amino-2-oxa-7-azaspiro[4.4]nonan-7-yl]-5,6,7,8-tetrahydroquinolin-6-yl]-6-methylthieno[2,3-b]pyridine-2-carboxamide] and `Cc1ccc2c(N)c(C(=O)N[C@H]3CCc4nc(N5C[C@@H](N)[C@]6(CCOC6)C5)ccc4C3)sc2n1` [Example 438, 3-amino-N-[(6S)-2-[(5S, 9S)-9-amino-2-oxa-7-azaspiro[4.4]nonan-7-yl]-5,6,7,8-tetrahydroquinolin-6-yl]-6-methylthieno[2,3-b]pyridine-2-carboxamide] fall in the same range of IC50: 50 to 200 nM for the first, 50 to 200 nM for the second.

Compared with `CO[C@H]1CN(c2ccc3c(c2)OC[C@H](NC(=O)c2sc4nc(C)cnc4c2N)C3)C[C@@H]1N` [Example 117], `Cc1cnc2c(N)c(C(=O)N[C@@H]3CCc4cc(N5C[C@@H]6C[C@H]5CN6)ccc4C3)sc2n1` (single isomer, unassigned) [Example 11-30] is higher in IC50: 1 to 50 nM for the first, 200 to 2000 nM for the second.

`CN[C@H]1CN(c2ccc3c(n2)CC[C@H](NC(=O)c2sc4nc(C)ccc4c2N)C3)C[C@H]1CF` [Example 441, 3-amino-N-[(6S)-2-[(3R,4R)-3-(fluoromethyl)-4-(methylamino)pyrrolidin-1-yl]-5,6,7,8-tetrahydroquinolin-6-yl]-6-methylthieno[2,3-b]pyridine-2-carboxamide] and `Cc1ccc2c(N)c(C(=O)N[C@@H]3CCc4cc(N5CCNCC5)ccc4C3)sc2n1` (single isomer, unassigned) [Example 11-22] fall in the same range of IC50: 50 to 200 nM for the first, 50 to 200 nM for the second.

First: Cc1ccc2c(N)c(C(=O)N[C@H]3COc4cc(N5CCNCC5)ccc4[C@@H]3C)sc2n1 (single isomer, unassigned) [Example 11-17]
Second: Cc1ccc2c(N)c(C(=O)N[C@@H]3COc4cc(N5CCNCC5)ccc4[C@@H]3C)sc2n1 (single isomer, unassigned) [Example 11-18]
The IC50 of the first is higher: greater than 2000 nM for the first, 200 to 2000 nM for the second.

First: Cc1nc2sc(C(=O)N[C@@H]3CCc4cc(N5CCNCC5)ccc4C3)c(N)c2s1 (single isomer, unassigned) [Example 11-34]
Second: CCn1ccc2cc(C(=O)N[C@H]3CCc4nc(N5C[C@@H](COC)[C@@H](N)C5)ccc4C3)cnc21 (single isomer, unassigned) [Example 400]
The IC50 of the first is lower: 50 to 200 nM for the first, 200 to 2000 nM for the second. The first is the more potent here.

Same assay, conditions: biochemical IC50 range, Ubiquitin-Rhodamine 110 assay, read-out: USP28 A-1(a)

`Cc1ccc2c(N)c(C(=O)N[C@H]3COc4cc(N5C[C@@H](N)[C@](C)(CF)C5)ccc4C3)sc2n1` [Example 661, 3-amino-N-[(3R)-7-[(3R,4S)-4-amino-3-(fluoromethyl)-3-methylpyrrolidin-1-yl]-3,4-dihydro-2H-1-benzopyran-3-yl]-6-methylthieno[2,3-b]pyridine-2-carboxamide] and `Cc1ccc2c(N)c(C(=O)N[C@H]3COc4cc(N5C[C@H](N)[C@](C)(CF)C5)ccc4C3)sc2n1` [Example 658, 3-amino-N-[(3R)-7-[(3R,4R)-4-amino-3-(fluoromethyl)-3-methylpyrrolidin-1-yl]-3,4-dihydro-2H-1-benzopyran-3-yl]-6-methylthieno[2,3-b]pyridine-2-carboxamide] fall in the same range of IC50: 1 to 50 nM for the first, 1 to 50 nM for the second.

First: CN[C@@H]1CN(c2ccc3c(c2)OC[C@H](NC(=O)c2sc4nc(C)ccc4c2N)C3)C[C@H]1CF [Example 663, 3-amino-N-[(3R)-7-[(3R,4S)-3-(fluoromethyl)-4-(methylamino)pyrrolidin-1-yl]-3,4-dihydro-2H-1-benzopyran-3-yl]-6-methylthieno[2,3-b]pyridine-2-carboxamide]
Second: Cc1ccc2c(N)c(C(=O)N[C@H]3CCc4cc(N5C[C@H](CF)[C@H](N)C5)ccc4C3)sc2n1 [Example 657, 3-amino-N-[(2S)-6-[(3S,4S)-3-amino-4-(fluoromethyl)pyrrolidin-1-yl]-1,2,3,4-tetrahydronaphthalen-2-yl]-6-methylthieno[2,3-b]pyridine-2-carboxamide]
The IC50 of the first is lower: 1 to 50 nM for the first, 50 to 200 nM for the second. The first is the more potent here.

`Cc1ccc2c(N)c(C(=O)N[C@H]3COc4cc(N5C[C@@H]6CCNC[C@@H]65)cc(F)c4C3)sc2n1` [Example 665, 3-amino-N-[(3R)-7-[(1R,6S)-3,8-diazabicyclo[4.2.0]octan-8-yl]-5-fluoro-3,4-dihydro-2H-1-benzopyran-3-yl]-6-methylthieno[2,3-b]pyridine-2-carboxamide] and `Cc1ccc2c(N)c(C(=O)N[C@H]3COc4cc(N5C[C@H](N)[C@]6(CCOC6)C5)ccc4C3)sc2n1` [Example 656, 3-amino-N-[(3R)-7-[(5S,9R)-9-amino-2-oxa-7-azaspiro[4.4]nonan-7-yl]-3,4-dihydro-2H-1-benzopyran-3-yl]-6-methylthieno[2,3-b]pyridine-2-carboxamide] fall in the same range of IC50: 1 to 50 nM for the first, 1 to 50 nM for the second.

First: CO[C@@H]1CN(c2ccc3c(c2)OC[C@H](NC(=O)c2sc4nc(C)cnc4c2N)C3)C[C@@H]1N [Example 147, 7-amino-N-[(3R)-7-[(3S,4R)-3-amino-4-methoxypyrrolidin-1-yl]-3,4-dihydro-2H-1-benzopyran-3-yl]-3-methylthieno[2,3-b]pyrazine-6-carboxamide]
Second: O=C(N[C@H]1COc2cc(N3CCNCC3)ccc2C1)c1ccc(NCc2ccc(Cl)cc2Cl)nc1 [Example 697, 6-{[(2,4-dichlorophenyl)methyl]amino}-N-[(3R)-7-(piperazin-1-yl)-3,4-dihydro-2H-1-benzopyran-3-yl]pyridine-3-carboxamide]
The IC50 of the first is higher: 50 to 200 nM for the first, 1 to 50 nM for the second.
